Reference: patent publication US10487078B2, “Compositions and methods of targeting mutant K-RAS” (NantBio, Inc., priority 2015, dated 2019)
Like-named read-outs stand apart in the source and are kept apart here.

Columns and labels:
Panc1 (G12D) cells = experiment: 72 hr cell viability (CellTiterBlue); format: cell-based; conditions: GI50, 72 hr
Description: (§1) Viability assays were performed on exemplary compounds and Table 2 below lists exemplary results for selected compounds tested on wild type (Ishikawa) and various K-ras mutants (Panc1-G12D; Panc10.05-G12D; HCT116-G13D).
(§2) Cells are counted and seeded at 1000 cells/36 ul medium/well into 384-well microplates. Cells are returned to 37° C. CO2 incubator for 18 hr. Drug is made as 200× in DMSO and diluted into medium to 10×. To each well is added 4 ul 10× drug, and plates are returned to the incubator. Final assay DMSO concentration is 0.5%. After 72 hr, 8 ul CellTiterBlue (Promega) is added to each well. After 3 hr, fluorescence (Ex550/Em590) is determined on the Victor Plate Reader (Perkin Elmer). Assay range is determined by DMSO control (100% viability) and 100 uM tamoxifen (0% viability). GI50 values are calculated using Graphpad Prism.

[1] = test system: Ishikawa (K-Ras wild-type) cells; experiment: 72 hr cell viability (CellTiterBlue); format: cell-based; conditions: GI50, 72 hr
Description: as §1, §2

HCT116 (G13D) cells = experiment: 72 hr cell viability (CellTiterBlue); format: cell-based; conditions: GI50, 72 hr
Description: as §1, §2

Panc10.05 (G12D) cells = experiment: 72 hr cell viability (CellTiterBlue); format: cell-based; conditions: GI50, 72 hr
Description: as §1, §2

[2] = test system: Akt phosphorylation in Panc1 (G12D) cells; experiment: In-Cell Western Akt phosphorylation; format: cell-based; conditions: EC50, one hour treatment; read-out: In-Cell Western Akt phosporylation Panc1 (G12D)
Description: (§3) In-cell phosphorylation assays for Erk and Akt were performed on various of the compounds and exemplary results are shown in Table 3 below using […] and Panc10.05 cell lines for G12D K-ras mutants.
(§4) Cells are seeded in complete medium into black sided, clear-bottom 384-well microplates at 3000 cells/[…]/well. Plates are returned to 37° C. CO2 incubator for 18 hr. Drug is made as 200× in DMSO and diluted into medium to 10×. To each well is added 4 ul 10× test article or controls, and plates are returned to the incubator. Final assay DMSO concentration is 0.5%. After one hour, cells are fixed in formaldehyde, rinsed & permeabilized with triton X-100, and blocked with BSA/Goat serum blocking solution. Primary phospho-Akt and phospho-ERK antibodies are added and plates are incubated overnight at 4° C. Plates are rinsed with Tween-20 wash buffer and secondary antibody (Goat anti-rabbit, Thermofisher) is added. After 2 hours, plates are rinsed in Tween-20 wash buffer, and then PBS. Plates are imaged on the Celigo (Nexcelom) and cellular fluorescence is quantitated. Full inhibition of phospho-Akt is achieved with 1 uM BEZ235 (Sellekchem), while full inhibition of phospho-ERK is achieved with 1 uM MEK Inhibitor II Calbiochem). EC50 values are calculated using Graphpad Prism.

[3] = test system: Akt phosphorylation in Panc10.05 (G12D) cells; experiment: In-Cell Western Akt phosphorylation; format: cell-based; conditions: EC50, one hour treatment; read-out: In-Cell Western Akt phosporylation Panc10.05 (G12D)
Description: as §3, §4

[4] = test system: Erk phosphorylation in Panc10.05 (G12D) cells; experiment: In-Cell Western Erk phosphorylation; format: cell-based; conditions: EC50, one hour treatment; read-out: In-Cell Western Erk phosporylation Panc10.05 (G12D)
Description: as §3, §4

[5] = test system: Erk phosphorylation in Panc1 (G12D) cells; experiment: In-Cell Western Erk phosphorylation; format: cell-based; conditions: EC50, one hour treatment; read-out: In-Cell Western Erk phosporylation Panc1 (G12D)
Description: as §3, §4

K-ras G12D = K-ras G12D (Homo sapiens, UniProt P01116, G12D); experiment: G-LISA Ras activation assay, 293H cells transfected with G12D mutant; format: cell-based; conditions: 1 hour treatment
Description: (§5) 293H cells were seeded in 6-wells at 0.6×10^6 cells per well and transfected next day with 5 μg of Ras wild-type, or G12C, G12D or G12V mutant DNA plasmid vector using transfection reagent Lipofectamine 3000. Next day cells were treated with 3.125-50 μM of Ras compounds for 1 hour. Wild-type transfected cells were subsequently treated with 100 ng/ml EGF for 2 minutes. Cells were washed once in ice-cold PBS, lysed in complete lysis buffer on ice, and processed by G-LISA according to Cytoskeleton protocol.
(§6) In-cell selectivity of the compounds presented herein against a specific K-ras mutant form can also be tested as shown in the following exemplary experiment. 293H cells were seeded in 6-wells and transfected next day with 5 μg of Ras wild-type, or G12C, G12D or G12V mutant DNA plasmid vector. Next day cells were treated with 3.125-50 μM of Ras compounds for 1 hour. Wild-type transfected cells were subsequently treated with 100 ng/ml EGF for 2 minutes. Cells were washed once in ice-cold PBS, lysed in complete lysis buffer on ice, and processed by G-LISA according to Cytoskeleton protocol. FIG. 1 depicts exemplary results.
as §5, with “In still further experiments, the inventors tested selected compounds in a G-LISA assay to compare IC50 values for wild-type and various mutant K-Ras (G12D, G12V) using the following general protocol: 293H” for “293H”

K-ras G12V = K-ras G12V (Homo sapiens, UniProt P01116, G12V); experiment: G-LISA Ras activation assay, 293H cells transfected with G12V mutant; format: cell-based; conditions: 1 hour treatment
Description: as §5, §6
as §5, with “In still further experiments, the inventors tested selected compounds in a G-LISA assay to compare IC50 values for wild-type and various mutant K-Ras (G12D, G12V) using the following general protocol: 293H” for “293H”

K-Ras wild-type = K-Ras wild-type (Homo sapiens, UniProt P01116); experiment: G-LISA Ras activation assay, 293H cells transfected with Ras wild-type, EGF-stimulated; format: cell-based; conditions: 1 hour treatment, 100 ng/ml EGF
Description: as §5, §6
as §5, with “In still further experiments, the inventors tested selected compounds in a G-LISA assay to compare IC50 values for wild-type and various mutant K-Ras (G12D, G12V) using the following general protocol: 293H” for “293H”

K-ras G12V (GTP) = K-ras G12V (GTP) (Homo sapiens, UniProt P01116, G12V); experiment: SPR assay (surface plasmon resonance); format: binding; conditions: 25° C., 8% DMSO
Description: (§7) Selected compounds were also tested for selective binding to wild type and mutant forms of K-ras in the active and non-active state using surface plasmon resonance, and exemplary results are shown in Table 4.
(§8) The running buffer in all surface plasmon resonance experiments was 10 mM HEPES pH 7.4, 150 mM NaCl, 0.1% (v/v) Tween-20, 1 mM MgCl2, 8% DMSO. Experiments were carried out on the SensiQ Pioneer optical biosensor. The flow rate was set at 50 μL/min and the temperature was 25° C. kRAS protein was immobilized to the Nickel-NTA charged surface of the SensiQ HisCap chip (sensiqtech.com) giving a yield of 4000 RU. Small molecules were prepared in 100% DMSO and further diluted to 8% DMSO in running buffer. The small molecules were injected using the Taylor diffusion gradient injection mode (OneStep®, see e.g., Evaluation of Taylor dispersion injections: Determining kinetic/affinity interaction constants and diffusion coefficients in label-free biosensing, John G. Quinn, Analytical Biochemistry (2011)). Buffer blanks were injected for double referencing purposes. Data processing and model fitting were performed using Qdat.

K-ras G12D (GTP) = K-ras G12D (GTP) (Homo sapiens, UniProt P01116, G12D); experiment: SPR assay (surface plasmon resonance); format: binding; conditions: 25° C., 8% DMSO
Description: as §7, §8

[6] = Table 1, G-LISA, 293H transfected, read-out: IC50 (μM) G12D
[7] = Table 1, G-LISA, 293H transfected, read-out: IC50 (μM) G12V
[8] = Table 5, IC50, 293H transfected, read-out: G-LISA (G12V)
[9] = Table 5, IC50, 293H transfected, read-out: G-LISA (G12D)
[10] = Table 1, G-LISA, 293H transfected, read-out: IC50 (μM) Wild-type
[11] = Table 5, IC50, 293H transfected, read-out: G-LISA (wild type)

Structure (SMILES) | IC50 (Panc1 (G12D) cells) [µM] | IC50 [1] [µM] | IC50 (HCT116 (G13D) cells) [µM] | IC50 (Panc10.05 (G12D) cells) [µM] | EC50 [2] [µM] | EC50 [3] [µM] | EC50 [4] [µM] | EC50 [5] [µM] | IC50 (K-ras G12D; [6]) [µM] | IC50 (K-ras G12V; [7]) [µM] | IC50 (K-ras G12V; [8]) [µM] | IC50 (K-ras G12D; [9]) [µM] | IC50 (K-Ras wild-type; [10]) [µM] | IC50 (K-Ras wild-type; [11]) [µM] | Kd (K-ras G12V (GTP)) [µM] | SPR Assay G12V (GTP) Rmax (K-ras G12V (GTP)) | Kd (K-ras G12D (GTP)) [µM] | SPR Assay G12D (GTP) Rmax (K-ras G12D (GTP))
Cc1nc(-n2ccnc2)sc1C(=O)Nc1nc(-c2ccc3c(c2)CCC(=O)N3)cs1 [Compound 4894] | ≥ 25 | ≥ 25 | ≥ 25 | ≥ 25 | > 25 | > 25 | > 25 | > 25 | – | – | – | – | – | – | – | – | – | –
Cc1nc(C2CCOC2)sc1C(=O)Nc1nc(-c2ccc3c(c2)CCC(=O)N3)cs1 (stereo not drawn) [Compound 4892] | 17 | 14 | 14 | 6 | 12 | 6 | 2 | 5 | 6.5 | – | – | – | – | – | – | – | – | –
Cc1nc(C)c(C(=O)N(Cc2ccccc2)c2nc(-c3ccc4c(c3)CCC(=O)N4Cc3ccccc3)cs2)s1 [Compound 4889] | ≥ 25 | 14 | 21 | ≥ 25 | > 25 | > 25 | > 25 | > 25 | – | – | – | – | – | – | – | – | – | –
COCCOc1nc(C)c(C(=O)Nc2nc(-c3ccc4c(c3)CCC(=O)N4)cs2)s1 [Compound 4896] | ≥ 25 | 19 | 22 | ≥ 25 | 14 | 12 | 8 | 8 | – | – | – | – | – | – | – | – | – | –
Cc1nc(C2CC2)sc1C(=O)Nc1nc(-c2ccc3c(c2)CCC(=O)N3)cs1 [Compound 4877] | 5 | 1.2 | – | – | 7 | 17 | 3 | 3 | 6 | 9 | 9 | 6 | 16 | 16 | – | – | – | –
CCc1nc(C)c(C(=O)Nc2nc(-c3ccc4c(c3)CCC(=O)N4)cs2)s1 [Compound 4891] | 11 | 12 | 13 | 4 | 7 | 3 | 2 | 2 | 5 | 9.3 | – | – | 11.5 | – | – | – | – | –
Cc1nc(N2CCOCC2)sc1C(=O)Nc1nc(-c2ccc3c(c2)CCC(=O)N3)cs1 [Compound 4895] | ≥ 25 | ≥ 25 | ≥ 25 | ≥ 25 | > 25 | > 25 | > 25 | > 25 | – | – | – | – | – | – | – | – | – | –
Cc1nc(C)c(C(=O)Nc2nc(-c3ccc4c(c3)CCC(=O)O4)cs2)s1 [Compound 4664] | – | – | – | – | – | – | – | – | > 25 | – | – | > 25 | – | – | 36.8 | Rmax = 143 ± 1 | 4.8 | Rmax = 8.73
Cc1nc(C)c(CNc2nc(-c3ccc4c(c3)CCC(=O)N4)cs2)s1 [Compound 4856] | ≥ 25 | – | – | ≥ 25 | > 25 | > 25 | 19 | 7 | > 25 | – | – | – | – | – | – | – | – | –
Cc1nc(C)c(C(=O)Nc2nc(-c3ccc4c(c3)CCC(=O)N4Cc3ccccc3)cs2)s1 [Compound 4888] | 9 | 5 | 7 | 4 | 5 | 3 | 2 | 4 | 6 | 14.5 | 14.5 | 6 | 11.3 | 11.3 | – | – | – | –
Cc1nc(Cc2ccccn2)sc1C(=O)Nc1nc(-c2ccc3c(c2)CCC(=O)N3)cs1 [Compound 4893] | ≥ 25 | ≥ 25 | ≥ 25 | ≥ 25 | > 25 | > 25 | > 25 | > 25 | – | – | – | – | – | – | – | – | – | –
